Source: patent US5051253A, “Use of polyacrylates to reduce proteolytic activity in the human intestinal tract” (Reckitt & Colman Products Limited, priority 1988, dated 1991)
Read-outs that look alike come from different tables or passages of the source.

Test system: faecal proteolytic activity
Assay: Human faecal proteolytic activity (in-vitro), succinyl albumin substrate
Type: biochemical
Method: Human faecal extracts (from asymptomatic volunteers) were obtained by suspending samples of stool in 4 volumes of M/15M KH2 PO4 /Na2 HPO4 pH 7.5 containing 50 mM NaCl and centrifuging at 10,000 g for 15 minutes at 4° C. The supernatant was retained as the faecal extract.
Proteolytic activity was measured using a modification of the method of Lin et al, J.Biol.Chem. 244 (4), 789-793 (1969), i.e. a sensitive trinitrobenzene sulphonic acid assay for formation of new peptide N-terminals using succinyl albumin as substrate. Faecal extract containing one unit of protease activity (equivalent to 1 μg trypsin) was mixed with 0.5 ml buffer (M/15 phosphate pH 7.5) or inhibitor. Substrate (0.5 ml, 8 mgml^-1 succinyl albumin) was added to start the reaction and samples were incubated for 30 minutes at 37° C. Four per cent (w/v) sodium bicarbonate (0.5 ml) and 0.05% (w/v) trinitrobenzene sulphonic acid were added to trinitrophenylate the free amino groups formed and samples were incubated at 50° C. for 10 minutes to develop colour.
10% (w/v) Sodium dodecyl sulphate (0.5 ml) and 1M HCl (0.25 ml) were added to complete the reaction. Absorbance at 340 nm was measured. All samples were compared with heat inactivated faecal extract controls (100° C., 10 minutes).
A linear increase in N-terminals formed by proteolytic cleavage of peptide bonds was found over the first 30 minutes of digestion. […] Proteolytic activity in faecal extracts against succinyl albumin was inhibited by soybean trypsin inhibitor (1 μg) and P.M.S.F. (1 mM) but not by iodoacetamide (50 mM) or Na2 E.D.T.A. (10 mM). In view of this, levels of faecal protease activity were subsequently quantified as equivalents of porcine pancreatic trypsin activity by weight.

## O=C(O)CN(CCN(CC(=O)O)CC(=O)O)CC(=O)O [Na2 E.D.T.A.]
  Inhibition of proteolytic activity in faecal extracts against succinyl albumin: not

## O=S(=O)(F)Cc1ccccc1 [P.M.S.F., phenylmethylsulphonyl fluoride]
1 mM
  Inhibition of proteolytic activity in faecal extracts against succinyl albumin: inhibited

## NC(=O)CI [iodoacetamide]
50 mM
  Inhibition of proteolytic activity in faecal extracts against succinyl albumin: not

B1: soybean trypsin inhibitor (protein, UniProt P01070 25-205, looked up)
Trypsin inhibitor A: DFVLDNEGNPLENGGTYYILSDITAFGGIRAAPTGNERCPLTVVQSRNELDKGIGTIISSPYRIRFIAEGHPLSLKFDSFAVIMLCVGIPTEWSVVEDLPEGPAVKIGENKDAMDGWFRLERVSDDEFNNYKLVFCPQQAEDDKCGDIGISIDHDDGTRRLVVSKNKPLVVQFQKLDKESL
1 μg
  Inhibition of proteolytic activity in faecal extracts against succinyl albumin: inhibited
